Tests used:
C1498 AML cells = assay: C1498 AML model in C57BL/6J mice, histopathology of liver and ovary; assay type: in vivo; details: 5 mg/kg i.p. for 7 days
Experimental: Animal experiments were conducted in full accordance with Swedish governmental statutory regulations on animal welfare under permission from local ethical committees. Animals were housed at a max of five per cage and provided with sterile water and food ad libitum. All mice were monitored and weighed daily. For the head and neck carcinoma model a 100-μl cell suspension containing 1×10^6 FaDu cells was injected subcutaneously into the right rear flank of the animals. After injection, tumor growth was measured daily with calipers and the tumor volume calculated by the formula […]. When tumors had grown to a size of approximately 200 mm^3 (Day 0) mice were randomized to receive either vehicle (n=10) or b-AP15 5 mg/kg^−1 by subcutaneous injection s.c. (n=15) daily. […] Nineteen days after malignant cell injection all of the mice were killed and histopathological manifestations of liver, ovary (target organs for this model of tumor) were evaluated and compared between groups. […]
SCID mice bearing FaDu human tumor xenografts were randomized at tumor take (200 mm^3) and treated by daily subcutaneous injection with either vehicle (n=10) or 5 mg kg^−1 b-AP15 (n=15) for 10 days. […] Mice were treated with vehicle (n=6) or 5 mg kg^−1 b-AP15 (n=6) 4-5 times weekly for 3 weeks and monitored for tumor onset (log-rank, P=0.0136, hazard ratio=7.9). […]

[1] = tested on: cellular DUB activity (HCT-116 cells); assay: Cellular DUB activity, Ub-AMC cleavage in lysates of treated cells; assay type: cell-based; details: b-AP15 treated cells
From the text: b-AP15 comprises an α-β dienone entity with two sterically accessible β carbons. A structurally similar pharmacophore has been earlier described to be comprised by a class of ubiquitin isopeptidase inhibitors (21). […] In the opinion of the present inventors the similarities in pharmacophore structure and the data showing that b-AP15 inhibits proteasome activity independent of the 20S CP indicate that b-AP15 represents a novel class of proteasome inhibitors that block the deubiquitinating activity of the 19S RP.
HTC-116 cells were treated for 3 h with b-AP15 (1 μM) (FIG. 10). Lysates treated with 10 mM N-ethylmaleimide (NEM) were included as a control for total DUB inhibition. DUB activity was determined from cell lysates by measuring cleavage of the fluorogenic substrate ubiquitin-7-amido-4-methylcoumarin (Ub-AMC).

chaperone genes = assay: Microarray expression of chaperone genes after b-AP15 treatment; assay type: cell-based; details: b-AP15 vs vehicle
Experimental: The microarray based gene expression analysis and the Connectivity Map (CMAP) analysis was performed as previously described (40). Briefly, MCF7 cells were exposed to b-AP15 (1 μM, 6 h) or vehicle (0.1% DMSO, 6 h). RNA was isolated (RNeasy miniprep kit, Qiagen) followed by quality control, labelling and hybridization to Genome U133 Plus 2.0 arrays (Affymetrix Inc). Raw data was normalized using Mas5 (Affymetrix Inc.) and rank ordered. For selection of the 30 most induced (up tags) and the 30 most suppressed (down tags) transcripts the following criteria were used: Up tags, present call and expression over 300 arbitrary in the b-AP15 experiment; Down tags, present call after both b-AP15 and vehicle treatment, and expression over 300 arbitrary units in the vehicle experiment. For CMAP compatibility only tags (i.e. probes) present on HG U133A were used. Raw and normalized expression data have been deposited at Gene Expression Omnibus (http://www.ncbi.nlm.nih.gov/geo/) with accession number GSE24150.
Expression of chaperone genes observed in bAP15-treated cells (Table 1) is indicative of induction of a proteotoxic response.

C=CC(=O)N1C/C(=C\c2ccc([N+](=O)[O-])cc2)C(=O)/C(=C/c2ccc([N+](=O)[O-])cc2)C1 [b-AP15]
AML infiltration in liver and ovary (C1498 AML cells): few infiltrated blasts and normal morphology | cellular DUB activity (Ub-AMC cleavage) [1]: no reduction in Ub-AMC cleavage | Fold change HSPA6 (chaperone genes; probe set 117_at): 725 | Fold change DNAJB1 (chaperone genes; probe set 200666_s_at): 6 | Fold change HSPA1A (chaperone genes; probe set 200800_s_at): 4 | Fold change DNAJA1 (chaperone genes; probe set 200880_at): 4 | Fold change HSPA1B (chaperone genes; probe set 202581_at): 5 | Fold change DNAJB9 (chaperone genes; probe set 202843_at): 4 | Fold change DNAJB4 (chaperone genes; probe set 203810_at): 16 | Fold change DNAJB4 (chaperone genes; probe set 203811_s_at): 5 | Fold change HSPA4L (chaperone genes; probe set 205543_at): 13 | Fold change HSPH1 (chaperone genes; probe set 206976_s_at): 5 | Fold change HSPA4 (chaperone genes; probe set 211016_x_at): 4 | Fold change DNAJA4 (chaperone genes; probe set 225061_at): 30 | Fold change HSPD1 (chaperone genes; probe set 241716_at): 6

From patent US9856511B2, “Protease deubiquitinating inhibitor screening” (priority 2011, dated 2018)
